{"source": "patent US12077503B2", "about": "“Substituted cyclic amides and their use as herbicides” (FMC CORPORATION, priority 2015, dated 2024)", "format_in_all_cases": "in vivo", "key": {"corn (Zea mays) [1]": {"test_system": "corn (Zea mays)", "experiment": "Test G Post-Emergence Protocol", "protocol": "(§1) Seeds of corn (Zea mays), giant foxtail (Setaria faberi), barnyardgrass (Echinochloa crus-galli), ivy-leaved morning glory (Ipomoea hederacea), redroot pigweed (Amaranthus retroflexus) and velvetleaf (Abutilon theophrasti) were sown in standard soil in pots. After cultivation for 8 days under controlled conditions in a glasshouse (at 24/16° C., day/night; 14 hours light; 65% humidity), the plants were sprayed with an aqueous spray solution derived from the formulation of the technical active ingredient in acetone/water (50:50) solution containing 0.5% Tween 20 (polyoxyethylene sorbitan monolaurate, CAS RN 9005-64-5) to give a final dose of 15.625, 62.5 or 250 g/ha of test compound.\n(§2) The test plants were then grown on under controlled conditions in a glasshouse (at 24/16° C., day/night; 14 hours light; 65% humidity) and watered twice daily. After 13 days the test was evaluated (100=total damage to plant; 0=no damage to plant). A dash (-) means no test result."}, "[2]": {"test_system": "redroot pigweed (Amaranthus retroflexus)", "experiment": "Test G Post-Emergence Protocol", "protocol": "as §1, §2"}, "[3]": {"test_system": "ivy-leaved morning glory (Ipomoea hederacea)", "experiment": "Test G Post-Emergence Protocol", "protocol": "as §1, §2"}, "[4]": {"test_system": "velvetleaf (Abutilon theophrasti)", "experiment": "Test G Post-Emergence Protocol", "protocol": "as §1, §2"}, "[5]": {"test_system": "giant foxtail (Setaria faberi)", "experiment": "Test G Post-Emergence Protocol", "protocol": "as §1, §2"}, "[6]": {"test_system": "barnyardgrass (Echinochloa crus-galli)", "experiment": "Test G Post-Emergence Protocol", "protocol": "as §1, §2"}, "corn (Zea mays) [7]": {"test_system": "corn (Zea mays)", "experiment": "Test G Pre-Emergence Protocol", "details": "evaluated after 13 days", "protocol": "as §1, with “one day” for “8 days”\nas §2"}, "[8]": {"test_system": "redroot pigweed (Amaranthus retroflexus)", "experiment": "Test G Pre-Emergence Protocol", "details": "evaluated after 13 days", "protocol": "as §1, with “one day” for “8 days”\nas §2"}, "[9]": {"test_system": "ivy-leaved morning glory (Ipomoea hederacea)", "experiment": "Test G Pre-Emergence Protocol", "details": "evaluated after 13 days", "protocol": "as §1, with “one day” for “8 days”\nas §2"}, "[10]": {"test_system": "velvetleaf (Abutilon theophrasti)", "experiment": "Test G Pre-Emergence Protocol", "details": "evaluated after 13 days", "protocol": "as §1, with “one day” for “8 days”\nas §2"}, "[11]": {"test_system": "giant foxtail (Setaria faberi)", "experiment": "Test G Pre-Emergence Protocol", "details": "evaluated after 13 days", "protocol": "as §1, with “one day” for “8 days”\nas §2"}, "[12]": {"test_system": "barnyardgrass (Echinochloa crus-galli)", "experiment": "Test G Pre-Emergence Protocol", "details": "evaluated after 13 days", "protocol": "as §1, with “one day” for “8 days”\nas §2"}, "[13]": {"details": "15.625 g ai/ha, evaluated after 13 days (100=total damage to plant; 0=no damage to plant)"}, "[14]": {"details": "62.5 g ai/ha, evaluated after 13 days, 100=total damage to plant, 0=no damage to plant"}, "[15]": {"details": "250 g ai/ha, evaluated after 13 days, 100=total damage to plant, 0=no damage to plant"}, "[16]": {"details": "62.5 g ai/ha, 100=total damage to plant, 0=no damage to plant"}}, "data": [{"molecule": "Cc1cccc(NC(=O)[C@H]2C(=O)N(C)C[C@@H]2c2ccc(C(F)(F)F)cc2)c1S(C)(=O)=O", "note": "(racemic) [Compound 1677]", "values": [{"measurement": "Corn damage rating", "setting": "corn (Zea mays) [1]; [13]", "result": 0}, {"measurement": "Corn damage rating", "setting": "corn (Zea mays) [1]; [14]", "result": 0}, {"measurement": "Corn damage rating", "setting": "corn (Zea mays) [1]; [15]", "result": 0}, {"measurement": "Pigweed, Redroot damage rating", "setting": "[2]; [13]", "result": 0}, {"measurement": "Pigweed, Redroot damage rating", "setting": "[2]; [14]", "result": 0}, {"measurement": "Pigweed, Redroot damage rating", "setting": "[2]; [15]", "result": 0}, {"measurement": "Morningglory, Ivy-leaved damage rating", "setting": "[3]; [13]", "result": 0}, {"measurement": "Morningglory, Ivy-leaved damage rating", "setting": "[3]; [14]", "result": 0}, {"measurement": "Morningglory, Ivy-leaved damage rating", "setting": "[3]; [15]", "result": 0}, {"measurement": "Velvetleaf damage rating", "setting": "[4]; [13]", "result": 0}, {"measurement": "Velvetleaf damage rating", "setting": "[4]; [14]", "result": 0}, {"measurement": "Velvetleaf damage rating", "setting": "[4]; [15]", "result": 0}, {"measurement": "Foxtail, Giant damage rating", "setting": "[5]; [13]", "result": 10}, {"measurement": "Foxtail, Giant damage rating", "setting": "[5]; [14]", "result": 30}, {"measurement": "Foxtail, Giant damage rating", "setting": "[5]; [15]", "result": 50}, {"measurement": "Barnyardgrass damage rating", "setting": "[6]; [13]", "result": 0}, {"measurement": "Barnyardgrass damage rating", "setting": "[6]; [14]", "result": 10}, {"measurement": "Barnyardgrass damage rating", "setting": "[6]; [15]", "result": 10}, {"measurement": "Corn damage rating (100=total damage to plant; 0=no damage to plant)", "setting": "corn (Zea mays) [7]; 15.625 g ai/ha", "result": 0}, {"measurement": "Corn damage rating", "setting": "corn (Zea mays) [7]; [16]", "result": 0}, {"measurement": "Corn damage rating (100=total damage to plant; 0=no damage to plant)", "setting": "corn (Zea mays) [7]; 250 g ai/ha", "result": 0}, {"measurement": "Pigweed, Redroot damage rating (100=total damage to plant; 0=no damage to plant)", "setting": "[8]; 15.625 g ai/ha", "result": 0}, {"measurement": "Pigweed, Redroot damage rating", "setting": "[8]; [16]", "result": 0}, {"measurement": "Pigweed, Redroot damage rating (100=total damage to plant; 0=no damage to plant)", "setting": "[8]; 250 g ai/ha", "result": 0}, {"measurement": "Morningglory, Ivy-leaved damage rating (100=total damage to plant; 0=no damage to plant)", "setting": "[9]; 15.625 g ai/ha", "result": 0}, {"measurement": "Morningglory, Ivy-leaved damage rating", "setting": "[9]; [16]", "result": 0}, {"measurement": "Morningglory, Ivy-leaved damage rating (100=total damage to plant; 0=no damage to plant)", "setting": "[9]; 250 g ai/ha", "result": 0}, {"measurement": "Velvetleaf damage rating (100=total damage to plant; 0=no damage to plant)", "setting": "[10]; 15.625 g ai/ha", "result": 0}, {"measurement": "Velvetleaf damage rating", "setting": "[10]; [16]", "result": 0}, {"measurement": "Velvetleaf damage rating (100=total damage to plant; 0=no damage to plant)", "setting": "[10]; 250 g ai/ha", "result": 0}, {"measurement": "Foxtail, Giant damage rating (100=total damage to plant; 0=no damage to plant)", "setting": "[11]; 15.625 g ai/ha", "result": 10}, {"measurement": "Foxtail, Giant damage rating", "setting": "[11]; [16]", "result": 40}, {"measurement": "Foxtail, Giant damage rating (100=total damage to plant; 0=no damage to plant)", "setting": "[11]; 250 g ai/ha", "result": 70}, {"measurement": "Barnyardgrass damage rating (100=total damage to plant; 0=no damage to plant)", "setting": "[12]; 15.625 g ai/ha", "result": 0}, {"measurement": "Barnyardgrass damage rating", "setting": "[12]; [16]", "result": 0}, {"measurement": "Barnyardgrass damage rating (100=total damage to plant; 0=no damage to plant)", "setting": "[12]; 250 g ai/ha", "result": 10}]}]}
